Measurements reported in patent publication US11691980B2, “Liphagal analog and multi-targeted kinase inhibitor containing liphagal or analog thereof” (TOHOKU UNIVERSITY, priority 2017, dated 2023).

What was measured:
Assay type in all cases: biochemical
CDK6 = CDK6 (Homo sapiens, UniProt Q00534); test: IC50 by mobility shift assay; settings: Table 4, inhibitory activity against CDK6, mobility shift assay; read-out: IC50 (μM), Kinase
From the text: Next, the compounds produced in Production Examples described above were each assessed for its inhibitory activity against CDK6 by mobility shift assay. In addition, a combination showing the highest inhibitory activity is indicated by italics.

PIK3α (PIK3CA/PIK3R1) = PIK3α (PIK3CA/PIK3R1) (Homo sapiens, UniProt P42336); test: IC50 by mobility shift assay; settings: Table 2, mobility shift assay; read-out: IC50 (μM), Kinase PIK3CA/PIK3RI
Procedure: The compounds obtained in Production Examples described above were each measured for its IC50 value for PIK3α (PIK3CA/PIK3R1) by mobility shift assay. The mobility shift assay is a method involving separating and quantifying a substrate and a phosphorylated substrate on the basis of mobility in a capillary. Each compound was mixed at various concentrations with an assay buffer (20 mM HEPES, 2 mM DTT, 25 μM sodium cholate, 75 mM NaCl, 20 μM cantharidine) together with 21 nM PI3K, 1,000 nM phosphatidyl inositol, 50 μM ATP, and 5 mM MgCl, and the mixture was subjected to a reaction at room temperature for 5 hours, followed by the mobility shift assay. The test was repeated twice. The enzymatic reaction was assessed on the basis of a product ratio (P/(P+S)) calculated from the height of a substrate peptide peak (S) and the height of a phosphorylated peptide peak (P). An inhibition rate was calculated from a signal obtained when each compound was added, with the average signal of a control containing all reaction components being defined as 0% inhibition and the average signal of a background (no enzyme added) being defined as 100% inhibition.
(§1) The compounds produced in Production Examples described above were each assessed for its inhibitory activity against CDK7, PIM2, and PI3K by mobility shift assay. In addition, a combination showing the highest inhibitory activity against each kinase is indicated by italics.

CDK7/CycHMAT1 = CDK7/CycHMAT1 (Homo sapiens, UniProt P50613); test: IC50 by mobility shift assay; settings: Table 2, mobility shift assay; read-out: IC50 (μM), Kinase CDK7/CycH/MAT1
From the text: as §1

PIM2 = PIM2 (Homo sapiens, UniProt Q9P1W9); test: IC50 by mobility shift assay; settings: for IC50: Table 2, mobility shift assay, read-out: IC50 (μM), Kinase PIM2; for inhibitory activity against PIM2: in words, Table 2
From the text: as §1

CDK4/CycD3 = CDK4/CycD3 (Homo sapiens, UniProt P11802); test: IC50 by mobility shift assay; settings: Table 3, CDK4, mobility shift assay; read-out: IC50 (μM), Kinase CDK4/CycD3
From the text: Next, the compounds produced in Production Examples described above were each assessed for its inhibitory activity against CDK4 by mobility shift assay. In addition, a combination showing the highest inhibitory activity is indicated by italics.

PIK3CA/PIK3R1 = PIK3CA/PIK3R1 (Homo sapiens, UniProt P42336); test: ADP-Glo Kinase Assay; settings: FIG. 4
Procedure: CD-3 produced in the foregoing was used as a test substance, and was measured for its IC50 value for PIK3CA/PIK3R1 by ADP-Glo™ Kinase Assay. A specific procedure is as described below.
The test substance was dissolved in dimethyl sulfoxide (DMSO), and further diluted with DMSO to prepare a solution having a 100-fold concentration with respect to a Lest concentration. The solution was further diluted 25-fold with an assay buffer to prepare a test substance solution. A positive control substance was similarly treated to prepare a positive control substance solution.
1) 5 μL of a test substance solution having a 4-fold concentration, 5 μL of a substrate solution having a 4-fold concentration, 5 μL of an ATP solution having a 4-fold concentration, and 5 μL of a kinase/metal solution having a 4-fold concentration, which had been prepared with an assay buffer (50 mM MOPS, 1 mM DTT, pH 7.2), were mixed in wells of a 384 well black plate made of polystyrene, and the mixture was subjected to a reaction at room temperature for 1 hour. […]
4) The kinase reaction was assessed in terms of relative light unit (RLU). […]
An IC50 value was determined by approximating a plot of test substance concentration and inhibition rate to a 4-parameter logistic curve by a nonlinear least-squares method.

Sequence of CDK6 (Q00534 whole entry): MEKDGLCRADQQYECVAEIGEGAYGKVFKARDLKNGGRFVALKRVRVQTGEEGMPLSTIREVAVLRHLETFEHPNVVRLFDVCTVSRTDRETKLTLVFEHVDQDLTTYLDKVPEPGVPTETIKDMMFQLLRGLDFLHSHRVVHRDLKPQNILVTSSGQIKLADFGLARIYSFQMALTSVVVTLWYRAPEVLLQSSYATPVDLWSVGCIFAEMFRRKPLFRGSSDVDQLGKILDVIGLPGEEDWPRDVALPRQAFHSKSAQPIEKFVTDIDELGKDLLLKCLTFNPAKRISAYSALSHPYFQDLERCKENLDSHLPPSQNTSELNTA
Sequence of CDK7/CycHMAT1 (P50613 whole entry): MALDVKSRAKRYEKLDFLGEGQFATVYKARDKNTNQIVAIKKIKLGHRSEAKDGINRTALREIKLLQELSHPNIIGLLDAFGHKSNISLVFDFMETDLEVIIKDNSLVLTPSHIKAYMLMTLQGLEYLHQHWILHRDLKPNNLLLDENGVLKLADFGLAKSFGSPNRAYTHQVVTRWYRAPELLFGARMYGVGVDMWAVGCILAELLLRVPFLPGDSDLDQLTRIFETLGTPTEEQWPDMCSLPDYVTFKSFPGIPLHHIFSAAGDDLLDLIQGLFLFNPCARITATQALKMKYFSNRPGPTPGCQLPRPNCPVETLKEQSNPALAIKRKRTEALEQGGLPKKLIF
Sequence of CDK7/CycHMAT1 (P51946 whole entry partner): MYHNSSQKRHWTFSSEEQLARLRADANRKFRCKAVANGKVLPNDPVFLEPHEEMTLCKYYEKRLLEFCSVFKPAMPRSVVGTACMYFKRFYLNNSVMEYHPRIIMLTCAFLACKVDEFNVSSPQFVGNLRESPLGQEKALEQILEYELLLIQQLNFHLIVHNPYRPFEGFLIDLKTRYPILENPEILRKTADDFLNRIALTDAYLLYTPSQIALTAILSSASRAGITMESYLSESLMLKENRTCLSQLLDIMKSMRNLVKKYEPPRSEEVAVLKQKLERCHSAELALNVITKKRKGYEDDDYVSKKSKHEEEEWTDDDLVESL
Sequence of CDK7/CycHMAT1 (P51948 whole entry partner): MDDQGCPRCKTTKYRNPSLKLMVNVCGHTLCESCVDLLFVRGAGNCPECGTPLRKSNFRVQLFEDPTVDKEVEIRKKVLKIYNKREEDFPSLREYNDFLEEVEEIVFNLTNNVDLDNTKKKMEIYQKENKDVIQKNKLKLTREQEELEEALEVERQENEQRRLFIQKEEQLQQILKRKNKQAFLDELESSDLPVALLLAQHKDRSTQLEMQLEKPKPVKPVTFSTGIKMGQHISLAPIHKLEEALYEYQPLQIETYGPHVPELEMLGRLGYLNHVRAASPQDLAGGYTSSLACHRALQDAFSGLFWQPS
Sequence of PIM2 (Q9P1W9 whole entry): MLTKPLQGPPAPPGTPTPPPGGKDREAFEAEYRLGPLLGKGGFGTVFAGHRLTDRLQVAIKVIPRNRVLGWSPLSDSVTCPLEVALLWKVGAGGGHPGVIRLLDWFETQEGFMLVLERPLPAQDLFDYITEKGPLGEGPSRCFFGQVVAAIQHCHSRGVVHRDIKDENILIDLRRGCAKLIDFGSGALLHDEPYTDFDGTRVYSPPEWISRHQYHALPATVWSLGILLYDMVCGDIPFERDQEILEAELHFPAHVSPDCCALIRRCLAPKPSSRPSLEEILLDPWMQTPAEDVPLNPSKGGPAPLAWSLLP
Sequence of PIK3α (PIK3CA/PIK3R1) (P42336 whole entry): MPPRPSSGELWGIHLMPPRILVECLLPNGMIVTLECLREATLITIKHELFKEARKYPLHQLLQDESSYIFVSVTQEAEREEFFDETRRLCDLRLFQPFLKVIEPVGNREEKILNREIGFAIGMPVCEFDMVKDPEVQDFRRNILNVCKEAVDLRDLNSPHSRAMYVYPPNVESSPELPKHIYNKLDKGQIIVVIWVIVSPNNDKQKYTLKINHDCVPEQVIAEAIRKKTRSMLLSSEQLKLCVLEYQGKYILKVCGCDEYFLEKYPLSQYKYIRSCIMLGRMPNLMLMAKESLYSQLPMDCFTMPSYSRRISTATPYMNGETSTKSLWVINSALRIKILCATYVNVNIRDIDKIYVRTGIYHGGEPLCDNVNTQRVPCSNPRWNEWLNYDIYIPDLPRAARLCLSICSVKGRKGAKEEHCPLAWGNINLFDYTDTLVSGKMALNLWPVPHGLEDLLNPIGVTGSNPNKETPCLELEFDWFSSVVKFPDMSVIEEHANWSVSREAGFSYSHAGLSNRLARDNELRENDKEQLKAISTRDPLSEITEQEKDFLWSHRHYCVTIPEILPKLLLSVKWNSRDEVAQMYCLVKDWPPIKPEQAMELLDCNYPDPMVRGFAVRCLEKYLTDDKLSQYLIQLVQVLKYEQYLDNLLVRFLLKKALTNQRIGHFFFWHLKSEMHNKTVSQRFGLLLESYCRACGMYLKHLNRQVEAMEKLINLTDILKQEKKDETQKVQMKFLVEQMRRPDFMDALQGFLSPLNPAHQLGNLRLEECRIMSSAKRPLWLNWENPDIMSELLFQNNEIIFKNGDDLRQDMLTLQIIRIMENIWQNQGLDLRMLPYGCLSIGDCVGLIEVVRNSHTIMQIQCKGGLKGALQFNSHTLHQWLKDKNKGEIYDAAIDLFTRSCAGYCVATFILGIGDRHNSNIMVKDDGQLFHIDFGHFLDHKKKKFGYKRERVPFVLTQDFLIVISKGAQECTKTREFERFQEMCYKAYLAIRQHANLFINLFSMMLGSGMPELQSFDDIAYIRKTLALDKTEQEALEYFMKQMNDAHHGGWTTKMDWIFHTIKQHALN
Sequence of PIK3α (PIK3CA/PIK3R1) (P27986 whole entry partner): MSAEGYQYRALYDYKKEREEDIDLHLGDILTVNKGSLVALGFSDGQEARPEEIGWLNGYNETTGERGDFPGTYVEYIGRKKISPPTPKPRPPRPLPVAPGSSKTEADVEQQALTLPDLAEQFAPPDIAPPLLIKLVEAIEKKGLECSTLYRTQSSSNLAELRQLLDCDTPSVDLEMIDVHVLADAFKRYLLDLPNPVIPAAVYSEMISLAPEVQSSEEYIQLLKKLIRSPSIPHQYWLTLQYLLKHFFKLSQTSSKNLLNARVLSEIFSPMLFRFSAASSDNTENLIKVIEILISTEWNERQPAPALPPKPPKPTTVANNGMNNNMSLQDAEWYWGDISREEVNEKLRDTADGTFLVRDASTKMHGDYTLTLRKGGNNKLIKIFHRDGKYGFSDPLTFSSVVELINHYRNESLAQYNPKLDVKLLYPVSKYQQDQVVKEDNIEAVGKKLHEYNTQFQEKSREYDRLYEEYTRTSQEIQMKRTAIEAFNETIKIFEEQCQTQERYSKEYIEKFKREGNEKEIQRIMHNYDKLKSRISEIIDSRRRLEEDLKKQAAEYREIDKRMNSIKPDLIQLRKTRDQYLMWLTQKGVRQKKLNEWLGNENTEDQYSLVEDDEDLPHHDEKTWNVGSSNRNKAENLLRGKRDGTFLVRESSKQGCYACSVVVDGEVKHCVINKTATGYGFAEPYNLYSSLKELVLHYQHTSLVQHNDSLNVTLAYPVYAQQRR
Sequence of CDK4/CycD3 (P11802 whole entry): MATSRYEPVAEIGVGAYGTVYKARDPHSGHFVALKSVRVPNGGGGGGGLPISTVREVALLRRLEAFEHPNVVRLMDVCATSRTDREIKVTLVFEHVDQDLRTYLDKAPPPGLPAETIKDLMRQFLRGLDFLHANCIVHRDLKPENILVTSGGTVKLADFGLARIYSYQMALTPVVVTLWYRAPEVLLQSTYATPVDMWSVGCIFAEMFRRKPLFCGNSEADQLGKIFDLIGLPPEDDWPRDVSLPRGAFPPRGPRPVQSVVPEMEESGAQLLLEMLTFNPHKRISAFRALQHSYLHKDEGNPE
Sequence of CDK4/CycD3 (P30281 whole entry partner): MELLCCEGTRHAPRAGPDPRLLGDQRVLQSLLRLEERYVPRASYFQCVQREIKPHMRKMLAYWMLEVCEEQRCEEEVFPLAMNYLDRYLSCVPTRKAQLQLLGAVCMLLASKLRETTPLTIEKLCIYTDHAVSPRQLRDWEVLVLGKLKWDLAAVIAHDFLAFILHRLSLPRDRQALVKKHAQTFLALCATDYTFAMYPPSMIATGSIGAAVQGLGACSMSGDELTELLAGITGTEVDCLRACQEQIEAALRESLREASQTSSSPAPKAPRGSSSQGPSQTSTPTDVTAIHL
Sequence of PIK3CA/PIK3R1 (P42336 whole entry): as the sequence (P42336 whole entry) above
Sequence of PIK3CA/PIK3R1 (P27986 whole entry partner): as the sequence (P27986 whole entry partner) above

SMILES | IC50 (CDK6) | IC50 (PIK3α (PIK3CA/PIK3R1)) | IC50 (CDK7/CycHMAT1) | IC50 (PIM2) | inhibitory activity against PIM2 (PIM2) | IC50 (CDK4/CycD3) | IC50 (PIK3CA/PIK3R1)
C[C@H]1CC[C@H]2C(C)(C)CCC[C@]2(C)/C1=C/c1cc(O)c(O)c(C=O)c1O [SD-2, 8-epi-siphonodictyal B] | 25.6 µM | 3.26 µM | 4.24 µM | 2.79 µM | potent inhibitory actions | 22.4 µM | –
C[C@H]1CC[C@H]2C(C)(C)CCCC2(C)[C@]12C=C1C=C(O)C(=O)C(C=O)=C1O2 (stereo partly drawn) [CD-3, 8-epi-corallidictyal B] | – | – | – | – | – | – | 8.2 µM
C[C@@H]1CC[C@H]2C(C)(C)CCC[C@]2(C)c2c1oc1c(C=O)c3c(cc21)OCO3 [LG-3] | 64.1 µM | 4.26 µM | 16.3 µM | 18 µM | – | 47.8 µM | –
C[C@H]1CC[C@H]2C(C)(C)CCC[C@]2(C)c2c1oc1c(C=O)c3c(cc21)OCO3 [LG-4] | – | 4.43 µM | 191 µM | 13.8 µM | – | – | –

Continued, values first:

IC50 (CDK6) | IC50 (PIK3α (PIK3CA/PIK3R1)) | IC50 (CDK7/CycHMAT1) | IC50 (PIM2) | inhibitory activity against PIM2 (PIM2) | IC50 (CDK4/CycD3) | IC50 (PIK3CA/PIK3R1) | SMILES
– | 1.72 µM | 9.08 µM | 2.81 µM | potent inhibitory actions | 125 µM | – | C[C@H]1CC[C@H]2C(C)(C)CCC[C@]2(C)c2c1oc1c(C=O)c(O)c(O)cc21 [LG-2]
69.1 µM | 2.62 µM | 13.7 µM | 6.99 µM | – | 32.9 µM | – | C[C@@H]1CC[C@H]2C(C)(C)CCC[C@]2(C)/C1=C/c1cc(O)c(O)c(C=O)c1O [SD-1, siphonodictyal B]
